Test results as given in patent publication US9980943B2, “Methods of treating muscular dystrophy” (BOARD OF REGENTS OF THE NEVADA SYSTEM OF HIGHER EDUCATION, …, priority 2013, dated 2018).

How the values were obtained:
Assay type in all cases: cell-based, mouse
[1] = system: α7 integrin (LacZ reporter in α7+/LacZ myotubes); experiment: Myotube α7 integrin FDG assay (Burkin assay in myotubes, 96-well); details: for Burkin Assay in Myotubes, value relative to DMSO: SU9516 analogs, 96-well, N=3-6
[2] = system: α7 integrin (LacZ reporter in α7βgal+/− myoblasts); experiment: Myoblast α7+/LacZ integrin FDG assay (Burkin assay in myoblasts, 96-well); details: 96-well; for Burkin Assay in Myoblasts, signal relative to DMSO: α7+/LacZ myoblasts; for Burkin Assay in Myoblasts, value relative to DMSO: SU9516 analogs, N=3-6
[3] = system: β-galactosidase in CMV-LacZ C2C12 myoblasts; experiment: CMV-LacZ secondary screen in C2C12 myoblasts (β-Gal stabilizing assay); details: for CMV-LACZ in Myoblasts (β-galactosidase activity relative to DMSO): CMV-LacZ C2C12 myoblasts; for CMV-LACZ in Myoblasts, value relative to DMSO: SU9516 analogs, C2C12 CMV-LacZ, N=2
Summary of the method: (§1)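 Stable CMV-LacZ C2C12 clone; six-point curve 0.5–40 μM; duplicates.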

[4] = system: β-galactosidase in CMV-LacZ C2C12 myotubes; experiment: CMV-LacZ secondary screen in C2C12 myotubes (β-Gal stabilizing assay); details: for CMV-LACZ in Myotubes, signal relative to DMSO: C2C12 CMV-LacZ myotubes, fold relative to DMSO; for CMV-LACZ in Myotubes, value relative to DMSO: SU9516 analogs, C2C12 CMV-LacZ, N=2
Summary of the method: as §1

CC(=O)C1=C(C)Nc2ncnn2C1c1ccc(C)cc1 (centres unmarked) [MLS001197779-01]
Burkin Assay in Myotubes, α7 integrin LacZ reporter signal relative to DMSO ([1]; 0.5 uM): 1.038
Burkin Assay in Myotubes, α7 integrin LacZ reporter signal relative to DMSO ([1]; 1 uM): 0.961
Burkin Assay in Myotubes, α7 integrin LacZ reporter signal relative to DMSO ([1]; 5 uM): 1.102
Burkin Assay in Myotubes, α7 integrin LacZ reporter signal relative to DMSO ([1]; 10 uM): 0.9249
Burkin Assay in Myotubes, α7 integrin LacZ reporter signal relative to DMSO ([1]; 20 uM): 0.8237
Burkin Assay in Myotubes, α7 integrin LacZ reporter signal relative to DMSO ([1]; 40 uM): 0.913
Burkin Assay in Myoblasts, signal relative to DMSO ([2]; 0.5 uM): 0.9161
Burkin Assay in Myoblasts, signal relative to DMSO ([2]; 1 uM): 1.0032
Burkin Assay in Myoblasts, signal relative to DMSO ([2]; 5 uM): 1.281
Burkin Assay in Myoblasts, signal relative to DMSO ([2]; 10 uM): 0.9869
Burkin Assay in Myoblasts, signal relative to DMSO ([2]; 20 uM): 0.8467
Burkin Assay in Myoblasts, signal relative to DMSO ([2]; 40 uM): 0.753
CMV-LACZ in Myoblasts (β-galactosidase activity relative to DMSO) ([3]; 0.5 uM): 0.8987
CMV-LACZ in Myoblasts (β-galactosidase activity relative to DMSO) ([3]; 1 uM): 1.2563
CMV-LACZ in Myoblasts (β-galactosidase activity relative to DMSO) ([3]; 5 uM): 0.7604
CMV-LACZ in Myoblasts (β-galactosidase activity relative to DMSO) ([3]; 10 uM): 0.6490
CMV-LACZ in Myoblasts (β-galactosidase activity relative to DMSO) ([3]; 20 uM): 0.9846
CMV-LACZ in Myoblasts (β-galactosidase activity relative to DMSO) ([3]; 40 uM): 1.1267
CMV-LACZ in Myotubes, signal relative to DMSO ([4]; 0.5 uM): 1.1286
CMV-LACZ in Myotubes, signal relative to DMSO ([4]; 1 uM): 1.1705
CMV-LACZ in Myotubes, signal relative to DMSO ([4]; 5 uM): 1.0456
CMV-LACZ in Myotubes, signal relative to DMSO ([4]; 10 uM): 1.0983
CMV-LACZ in Myotubes, signal relative to DMSO ([4]; 20 uM): 1.0630
CMV-LACZ in Myotubes, signal relative to DMSO ([4]; 40 uM): 1.0540

CC1CC(C)(C)NC(=S)N1CC(=O)N(C)Cc1ccccc1 (centres unmarked) [MLS000586245-01]
Burkin Assay in Myotubes, α7 integrin LacZ reporter signal relative to DMSO ([1]; 0.5 uM): 1.003
Burkin Assay in Myotubes, α7 integrin LacZ reporter signal relative to DMSO ([1]; 1 uM): 0.9584
Burkin Assay in Myotubes, α7 integrin LacZ reporter signal relative to DMSO ([1]; 5 uM): 1.043
Burkin Assay in Myotubes, α7 integrin LacZ reporter signal relative to DMSO ([1]; 10 uM): 1.179
Burkin Assay in Myotubes, α7 integrin LacZ reporter signal relative to DMSO ([1]; 20 uM): 0.9426
Burkin Assay in Myotubes, α7 integrin LacZ reporter signal relative to DMSO ([1]; 40 uM): 1.026
Burkin Assay in Myoblasts, signal relative to DMSO ([2]; 0.5 uM): 0.9903
Burkin Assay in Myoblasts, signal relative to DMSO ([2]; 1 uM): 1.049
Burkin Assay in Myoblasts, signal relative to DMSO ([2]; 5 uM): 1.116
Burkin Assay in Myoblasts, signal relative to DMSO ([2]; 10 uM): 1.244
Burkin Assay in Myoblasts, signal relative to DMSO ([2]; 20 uM): 1.033
Burkin Assay in Myoblasts, signal relative to DMSO ([2]; 40 uM): 1.021
CMV-LACZ in Myoblasts (β-galactosidase activity relative to DMSO) ([3]; 0.5 uM): 0.9034
CMV-LACZ in Myoblasts (β-galactosidase activity relative to DMSO) ([3]; 1 uM): 0.8985
CMV-LACZ in Myoblasts (β-galactosidase activity relative to DMSO) ([3]; 5 uM): 0.9258
CMV-LACZ in Myoblasts (β-galactosidase activity relative to DMSO) ([3]; 10 uM): 1.0505
CMV-LACZ in Myoblasts (β-galactosidase activity relative to DMSO) ([3]; 20 uM): 0.7726
CMV-LACZ in Myoblasts (β-galactosidase activity relative to DMSO) ([3]; 40 uM): 0.7674
CMV-LACZ in Myotubes, signal relative to DMSO ([4]; 0.5 uM): 1.0611
CMV-LACZ in Myotubes, signal relative to DMSO ([4]; 1 uM): 1.0800
CMV-LACZ in Myotubes, signal relative to DMSO ([4]; 5 uM): 0.9511
CMV-LACZ in Myotubes, signal relative to DMSO ([4]; 10 uM): 1.1338
CMV-LACZ in Myotubes, signal relative to DMSO ([4]; 20 uM): 1.2267
CMV-LACZ in Myotubes, signal relative to DMSO ([4]; 40 uM): 1.2656

COC(=O)Cn1c(=O)c2c(nc3n2CC(C)CN3Cc2ccccc2)n(C)c1=O (centres unmarked) [MLS001166758-01]
Burkin Assay in Myotubes, α7 integrin LacZ reporter signal relative to DMSO ([1]; 0.5 uM): 1.0327
Burkin Assay in Myotubes, α7 integrin LacZ reporter signal relative to DMSO ([1]; 1 uM): 1.027
Burkin Assay in Myotubes, α7 integrin LacZ reporter signal relative to DMSO ([1]; 5 uM): 0.9857
Burkin Assay in Myotubes, α7 integrin LacZ reporter signal relative to DMSO ([1]; 10 uM): 0.8979
Burkin Assay in Myotubes, α7 integrin LacZ reporter signal relative to DMSO ([1]; 20 uM): 0.9856
Burkin Assay in Myotubes, α7 integrin LacZ reporter signal relative to DMSO ([1]; 40 uM): 0.8754
Burkin Assay in Myoblasts, signal relative to DMSO ([2]; 0.5 uM): 0.824
Burkin Assay in Myoblasts, signal relative to DMSO ([2]; 1 uM): 0.7394
Burkin Assay in Myoblasts, signal relative to DMSO ([2]; 5 uM): 0.9736
Burkin Assay in Myoblasts, signal relative to DMSO ([2]; 10 uM): 0.8245
Burkin Assay in Myoblasts, signal relative to DMSO ([2]; 20 uM): 0.7275
Burkin Assay in Myoblasts, signal relative to DMSO ([2]; 40 uM): 0.6174
CMV-LACZ in Myoblasts (β-galactosidase activity relative to DMSO) ([3]; 0.5 uM): 0.9357
CMV-LACZ in Myoblasts (β-galactosidase activity relative to DMSO) ([3]; 1 uM): 1.0175
CMV-LACZ in Myoblasts (β-galactosidase activity relative to DMSO) ([3]; 5 uM): 1.1998
CMV-LACZ in Myoblasts (β-galactosidase activity relative to DMSO) ([3]; 10 uM): 1.0661
CMV-LACZ in Myoblasts (β-galactosidase activity relative to DMSO) ([3]; 20 uM): 0.6126
CMV-LACZ in Myoblasts (β-galactosidase activity relative to DMSO) ([3]; 40 uM): 0.3481
CMV-LACZ in Myotubes, signal relative to DMSO ([4]; 0.5 uM): 0.9958
CMV-LACZ in Myotubes, signal relative to DMSO ([4]; 1 uM): 0.7474
CMV-LACZ in Myotubes, signal relative to DMSO ([4]; 5 uM): 0.9780
CMV-LACZ in Myotubes, signal relative to DMSO ([4]; 10 uM): 0.9444
CMV-LACZ in Myotubes, signal relative to DMSO ([4]; 20 uM): 1.1044
CMV-LACZ in Myotubes, signal relative to DMSO ([4]; 40 uM): 0.9867

Cc1[nH]c(C=C2C(=O)Nc3ccccc32)c(C)c1CCC(=O)O [NCGC00241113-01]
Burkin Assay in Myotubes, value relative to DMSO ([1]; 0.5 uM): 1.078
Burkin Assay in Myotubes, value relative to DMSO ([1]; 1 uM): 1.105
Burkin Assay in Myotubes, value relative to DMSO ([1]; 5 uM): 0.8489
Burkin Assay in Myotubes, value relative to DMSO ([1]; 10 uM): 0.7678
Burkin Assay in Myotubes, value relative to DMSO ([1]; 20 uM): 0.7458
Burkin Assay in Myotubes, value relative to DMSO ([1]; 40 uM): 0.6312
Burkin Assay in Myoblasts, value relative to DMSO ([2]; 0.5 uM): 1.011
Burkin Assay in Myoblasts, value relative to DMSO ([2]; 1 uM): 1.057
Burkin Assay in Myoblasts, value relative to DMSO ([2]; 5 uM): 0.9062
Burkin Assay in Myoblasts, value relative to DMSO ([2]; 10 uM): 0.8662
Burkin Assay in Myoblasts, value relative to DMSO ([2]; 20 uM): 0.9594
Burkin Assay in Myoblasts, value relative to DMSO ([2]; 40 uM): 0.9168
CMV-LACZ in Myoblasts, value relative to DMSO ([3]; 0.5 uM): 1.4142
CMV-LACZ in Myoblasts, value relative to DMSO ([3]; 5 uM): 1.1634
CMV-LACZ in Myoblasts, value relative to DMSO ([3]; 10 uM): 1.1352
CMV-LACZ in Myoblasts, value relative to DMSO ([3]; 20 uM): 2.7827
CMV-LACZ in Myoblasts, value relative to DMSO ([3]; 40 uM): 3.3097
CMV-LACZ in Myotubes, value relative to DMSO ([4]; 0.5 uM): 0.8627
CMV-LACZ in Myotubes, value relative to DMSO ([4]; 1 uM): 1.3227
CMV-LACZ in Myotubes, value relative to DMSO ([4]; 5 uM): 0.9410
CMV-LACZ in Myotubes, value relative to DMSO ([4]; 10 uM): 1.0724
CMV-LACZ in Myotubes, value relative to DMSO ([4]; 20 uM): 0.9790
CMV-LACZ in Myotubes, value relative to DMSO ([4]; 40 uM): 0.9520

CC(C)c1ccc(NC(=O)CN2C(=O)c3ccccc3S2(=O)=O)cc1 [MLS001229477-01]
Burkin Assay in Myotubes, α7 integrin LacZ reporter signal relative to DMSO ([1]; 0.5 uM): 0.8015
Burkin Assay in Myotubes, α7 integrin LacZ reporter signal relative to DMSO ([1]; 1 uM): 0.9368
Burkin Assay in Myotubes, α7 integrin LacZ reporter signal relative to DMSO ([1]; 5 uM): 0.9702
Burkin Assay in Myotubes, α7 integrin LacZ reporter signal relative to DMSO ([1]; 10 uM): 0.9015
Burkin Assay in Myotubes, α7 integrin LacZ reporter signal relative to DMSO ([1]; 20 uM): 0.8376
Burkin Assay in Myotubes, α7 integrin LacZ reporter signal relative to DMSO ([1]; 40 uM): 0.8339
Burkin Assay in Myoblasts, signal relative to DMSO ([2]; 0.5 uM): 0.8703
Burkin Assay in Myoblasts, signal relative to DMSO ([2]; 1 uM): 0.8296
Burkin Assay in Myoblasts, signal relative to DMSO ([2]; 5 uM): 1.367
Burkin Assay in Myoblasts, signal relative to DMSO ([2]; 10 uM): 0.9454
Burkin Assay in Myoblasts, signal relative to DMSO ([2]; 20 uM): 0.9634
Burkin Assay in Myoblasts, signal relative to DMSO ([2]; 40 uM): 0.9019
CMV-LACZ in Myoblasts (β-galactosidase activity relative to DMSO) ([3]; 0.5 uM): 1.0283
CMV-LACZ in Myoblasts (β-galactosidase activity relative to DMSO) ([3]; 1 uM): 1.1345
CMV-LACZ in Myoblasts (β-galactosidase activity relative to DMSO) ([3]; 5 uM): 1.1078
CMV-LACZ in Myoblasts (β-galactosidase activity relative to DMSO) ([3]; 10 uM): 1.1311
CMV-LACZ in Myoblasts (β-galactosidase activity relative to DMSO) ([3]; 20 uM): 1.0674
CMV-LACZ in Myoblasts (β-galactosidase activity relative to DMSO) ([3]; 40 uM): 0.8800
CMV-LACZ in Myotubes, signal relative to DMSO ([4]; 0.5 uM): 1.0126
CMV-LACZ in Myotubes, signal relative to DMSO ([4]; 1 uM): 1.1095
CMV-LACZ in Myotubes, signal relative to DMSO ([4]; 5 uM): 0.9250
CMV-LACZ in Myotubes, signal relative to DMSO ([4]; 10 uM): 0.9587
CMV-LACZ in Myotubes, signal relative to DMSO ([4]; 20 uM): 0.9622
CMV-LACZ in Myotubes, signal relative to DMSO ([4]; 40 uM): 0.9611
